Measured values as given in patent US7250267B2, “Cross-reactive sensors” (priority 2001, dated 2007).

What was measured:
Assay type in all cases: biochemical
[1] = molecular target: T1, Acetylcholine Esterase from Electrophorus electricus (Electrophorus electricus, UniProt O42275); experiment: Esterase hydrolysis microtiter plate assay with fluorescein pH indicator, acetylcholine esterase; conditions: for hydrolysis reaction slope after three months / initial slope range and standard deviation of hydrolysis reaction: with acetylcholine esterase; for initial slope range and standard deviation of hydrolysis reaction: measured initially
T1 construct: purchased Sigma and Fluka
Description: (§1) A fluorescent pH indicator, fluorescein, was added to the reaction mixture to measure the change in acidity resulting from the hydrolysis reaction in a 96-well microtiter plate format. The fluorescence response was monitored over time to give a temporal pH-induced fluorescence pattern. […] Esterases have been used to test ester chirality (Janes et al., Chem. Eur. J, 1998, 4, 2324) and as synthetic tools for efficiently hydrolyzing a variety of esters (Ohno et al., Org. React, 1989, 37, 1). General Procedure for Enzyme-Based Sensor Array:
(§2) First, solutions of desired substrates (certain exemplary substrates are depicted in FIGS. 4 and 5) were made from 100 mM of substrate in CH3CN (or buffer, depending on the solubility of the ester). The analyte concentration was chosen to be at most one-fifth of the Michaelis constant (kM) for the esterases. All solvents and substrates were purchased from Aldrich, Sigma, and Fluka Chemical Companies and used as received.
(§3) The microtiter plate assay provides a rapid and reproducible system to measure the hydrolysis reactions. In the present example, the microtiter plate assay contained the nine esterases in different columns and the ester analytes in the different rows. Each esterase catalyzed hydrolysis reaction was addressed individually to monitor the kinetics by scanning each well independently. After preparation of the desired solutions, to the microtiter plate was first pipetted (using a pipetman) 100 μL of the substrate solution into each well. […] The plate was allowed to shake for 10 seconds before the first reading. The reader reads 15 second intervals while shaking before each read. The plate was monitored for 90 seconds by a Molecular Devices, Spectra Max Gemini, fluorescence microtiter plate reader. The reader scans each row and column of the microtiter plate reading each well individually. Therefore, each enzyme was monitored individually and the enzyme's kinetics were measured at the same point in time. […] The MATLAB program analyzes the individual interactions and separates them into clusters, which can indicate the ability of the sensor to distinguish the analytes.

[2] = system: Esterase from Bacillus sp. (denoted bacteria-1); experiment: Esterase hydrolysis microtiter plate assay with fluorescein pH indicator, bacteria esterase 1; conditions: for Km / Vmax: Lineweaver-Burk plot, various ester concentrations, bacteria esterase 1
Description: as §1, §2
as §3, with “In” for “The microtiter plate assay provides a rapid and reproducible system to measure the hydrolysis reactions. In”
For mixture analysis, concentration runs of four esters, PA, ethyl valerate (EV), methyl nicotinate (MNI) and methyl 6-methyl nicotinate (MMNI) were performed with the nine esterases. The rates of the esterase reaction were plotted on a Lineweaver-Burk plot to determine the Km and Vmax and were used to identify subsequent mixtures of the four esters.

[3] = system: Esterase from Bacillus thermoglucosidasius (denoted bacteria-2); experiment: Esterase hydrolysis microtiter plate assay with fluorescein pH indicator, bacteria 2 esterase
Description: as §1
(§4) First, solutions of desired substrates (certain exemplary substrates are depicted in FIGS. 4 and 5) were made from 100 mM of substrate in CH3CN (or buffer, depending on the solubility of the ester). […]
(§5) The microtiter plate assay provides a rapid and reproducible system to measure the hydrolysis reactions. […] The plate was allowed to shake for 10 seconds before the first reading. The reader reads 15 second intervals while shaking before each read. The plate was monitored for 90 seconds by a Molecular Devices, Spectra Max Gemini, fluorescence microtiter plate reader. The reader scans each row and column of the microtiter plate reading each well individually. Therefore, each enzyme was monitored individually and the enzyme's kinetics were measured at the same point in time. […]

[4] = system: nine esterases; experiment: Esterase hydrolysis microtiter plate assay, nine-esterase array
Description: as §1, §4, §5

T1 sequence (O42275 24-633): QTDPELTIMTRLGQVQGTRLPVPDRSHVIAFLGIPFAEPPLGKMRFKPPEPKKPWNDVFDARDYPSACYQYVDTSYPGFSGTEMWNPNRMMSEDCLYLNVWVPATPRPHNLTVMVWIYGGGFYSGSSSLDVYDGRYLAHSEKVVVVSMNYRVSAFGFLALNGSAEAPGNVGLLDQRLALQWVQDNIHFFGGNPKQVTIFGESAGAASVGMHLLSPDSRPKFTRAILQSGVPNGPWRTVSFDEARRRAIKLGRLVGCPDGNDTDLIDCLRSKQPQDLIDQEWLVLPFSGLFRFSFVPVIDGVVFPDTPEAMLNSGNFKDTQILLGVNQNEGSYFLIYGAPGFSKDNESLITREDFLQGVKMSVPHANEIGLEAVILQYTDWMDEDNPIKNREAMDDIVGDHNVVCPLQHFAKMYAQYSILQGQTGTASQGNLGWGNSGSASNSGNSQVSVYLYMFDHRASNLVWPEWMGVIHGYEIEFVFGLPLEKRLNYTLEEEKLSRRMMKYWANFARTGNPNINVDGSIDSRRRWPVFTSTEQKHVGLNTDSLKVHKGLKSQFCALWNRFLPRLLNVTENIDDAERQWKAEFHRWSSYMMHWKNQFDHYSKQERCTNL

CCCC(=O)OCC [BA, Ethyl butyrate]
hydrolysis reaction slope after three months [1]: −3.2×10^2 fluorescence units/time | initial slope range and standard deviation of hydrolysis reaction [1]: (−2.9±1.6)×10^3 fluorescence units/time

COC(=O)[C@@H](C)N [DM, D-alanine methyl ester]
hydrolysis by bacteria 1 esterase [2]: hydrolyzed | hydrolysis by acetylcholine esterase [1]: hydrolyzed | hydrolysis by bacteria 2 esterase [3]: not DM

COC(=O)[C@H](C)N [LM, L-alanine methyl ester]
hydrolysis by bacteria 1 esterase [2]: hydrolyzed | hydrolysis by acetylcholine esterase [1]: hydrolyzed | hydrolysis by bacteria 2 esterase [3]: hydrolyzes only LM

CCCC(=O)OC [MB, methyl butyrate]
hydrolysis reaction slope after three months [1]: −1.3×10^2 fluorescence units/time | initial slope range and standard deviation of hydrolysis reaction [1]: (−1.3±0.01)×10^2 fluorescence units/time

CC(=O)Oc1ccccc1 [PA, Phenyl acetate]
hydrolysis reaction slope after three months [1]: −1.5×10^3 fluorescence units/time | initial slope range and standard deviation of hydrolysis reaction [1]: (−1.4±0.2)×10^2 fluorescence units/time | relative rate of hydrolysis among all of the esters [4]: hydrolyzed the fastest

CCCCC(=O)OCC [ethyl valerate, Ethyl valerate]
Km [2]: 1000 µM | Vmax [2]: 2e-07 M/s

COC(=O)c1ccc(C)nc1 [methyl 6-methyl nicotinate, Methyl 6-methyl nicotinate]
Km [2]: 2600 µM | Vmax [2]: 4e-07 M/s
